Data from patent publication US6451576B1, “Sesquiterpene synthases from grand fir (Abies grandis), and methods of use” (Washington State University Research Foundation, priority 1998, dated 2002).

Tests used:
[1] = target: T1, γ-humulene synthase (SEQ ID No:24) (Abies grandis, UniProt O64405); test: Kinetic parameters, metal ion requirement and substrate specificity of recombinant γ-humulene synthase; type: biochemical
T1 construct: For further subcloning of the amplified, full-length cDNA into the pSBETa vector for high-level expression, the pGAG5 insert was amplified; made in house; host or cells: E. coli XL1-Blue/pGAG5 or E. coli BL21(DE3)/pSBAG5
T1 sequence (O64405 1-593): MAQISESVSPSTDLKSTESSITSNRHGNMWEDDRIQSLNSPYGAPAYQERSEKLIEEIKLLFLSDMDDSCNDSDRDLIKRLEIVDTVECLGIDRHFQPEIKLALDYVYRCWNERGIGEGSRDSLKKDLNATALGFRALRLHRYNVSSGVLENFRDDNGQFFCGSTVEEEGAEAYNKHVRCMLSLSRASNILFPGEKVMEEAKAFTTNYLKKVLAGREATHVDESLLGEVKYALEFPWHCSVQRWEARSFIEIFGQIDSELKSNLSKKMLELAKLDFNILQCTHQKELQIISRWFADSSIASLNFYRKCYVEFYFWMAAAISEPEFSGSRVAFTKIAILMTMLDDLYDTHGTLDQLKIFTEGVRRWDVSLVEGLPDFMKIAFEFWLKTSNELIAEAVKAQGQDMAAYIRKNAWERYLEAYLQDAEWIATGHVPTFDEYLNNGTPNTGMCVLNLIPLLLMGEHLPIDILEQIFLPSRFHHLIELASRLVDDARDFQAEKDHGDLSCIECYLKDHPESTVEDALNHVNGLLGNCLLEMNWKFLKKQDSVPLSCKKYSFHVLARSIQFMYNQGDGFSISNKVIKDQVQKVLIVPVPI
Description: (§1) The assay for recombinant sesquiterpene synthase (cyclase) activity was performed in 1 ml of buffer (extraction buffer without MnCl2 or the polymeric adsorbents) containing 3.5 μM [1-^3H]farnesyl diphosphate and the total protein extracted from a 5 ml bacterial culture to produce 10^5-10^6 dpm of product in 2 h at 31° C. The incubation mixture was overlaid with 1 ml pentane to trap volatile products. After incubation, the reaction mixture was extracted with pentane (3×1 ml) and the combined extract was passed through a MgSO4-silica gel column to provide the terpene hydrocarbon fractions as before. The columns were subsequently eluted with 3×1 ml of ether to collect any oxygenated products, and an aliquot of each fraction was taken for liquid scintillation counting to determine conversion rate. The monoterpene synthase and diterpene synthase activity assays were similarly performed as described in detail elsewhere (LaFever, R. E., et al., (1994) Arch. Biochem. Biophys. 313, 139-149; Bohlmann, J., et al., (1997) J. Biol. Chem. 272, 21784-21792; Lewinsohn, E., et al., (1991) Plant Physiol. 96, 38-43).
(§2) The substrate specificity and other kinetic. parameters of γ-humulene synthase (SEQ ID No:24) and δ-selinene synthase (SEQ ID No:20) were investigated in order to confirm the identification and classification of these enzymes. […] Neither of these sesquiterpene synthases requires K^+ or other monovalent cation for activity.
(§3) Substrate specificity of δ-selinene synthase (SEQ ID No:20) and γ-humulene synthase (SEQ ID No:24) was evaluated by comparing farnesyl diphosphate (C15) to geranyl diphosphate (C10) and geranylgeranyl diphosphate (C20) at saturation as precursors of the respective terpene olefins. […] The identities of the monoterpene products produced by the sesquiterpene synthases were determined by GLC-MS and are set forth in FIG. 4.

[2] = target: T2, δ-selinene synthase (SEQ ID No:20) (Abies grandis, UniProt O64404); test: Kinetic parameters, metal ion requirement and substrate specificity of recombinant δ-selinene synthase; type: biochemical
T2 construct: made in house; host or cells: E. coli XL1-Blue/pGAG4 or E. coli BL21(DE3)/pSBAG4
T2 sequence (O64404 1-581): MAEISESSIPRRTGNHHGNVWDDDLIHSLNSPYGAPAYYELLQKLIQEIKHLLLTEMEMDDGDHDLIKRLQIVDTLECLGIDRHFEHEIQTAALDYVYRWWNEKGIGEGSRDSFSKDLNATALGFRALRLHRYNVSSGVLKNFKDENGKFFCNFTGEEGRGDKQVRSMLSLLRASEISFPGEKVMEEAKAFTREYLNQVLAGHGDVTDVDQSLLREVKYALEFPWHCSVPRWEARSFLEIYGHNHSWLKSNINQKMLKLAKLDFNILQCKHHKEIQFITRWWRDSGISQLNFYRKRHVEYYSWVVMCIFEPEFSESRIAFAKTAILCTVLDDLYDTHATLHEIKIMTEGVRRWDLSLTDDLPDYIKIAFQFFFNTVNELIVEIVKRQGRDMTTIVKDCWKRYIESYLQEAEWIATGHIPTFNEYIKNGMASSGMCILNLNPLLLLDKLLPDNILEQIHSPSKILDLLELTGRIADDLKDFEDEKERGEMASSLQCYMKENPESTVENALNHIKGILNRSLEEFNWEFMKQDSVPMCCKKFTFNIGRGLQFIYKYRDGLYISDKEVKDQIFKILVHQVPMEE
Description: as §1, §2, §3

## CC(C)=CCC/C(C)=C/COP(=O)(O)OP(=O)(O)O [geranyl diphosphate, reference compound]
[1]
  olefin formation from substrate at saturation, compared with farnesyl diphosphate: roughly half the rate
[2]
  olefin formation from substrate at saturation, compared with farnesyl diphosphate: roughly half the rate

## CC(C)=CCC/C(C)=C/CC/C(C)=C/CC/C(C)=C/COP(=O)(O)OP(=O)(O)O [geranylgeranyl diphosphate, reference compound]
[1]
  olefin formation from substrate at saturation, compared with farnesyl diphosphate: failed to generate detectable olefinic products
[2]
  olefin formation from substrate at saturation, compared with farnesyl diphosphate: failed to generate detectable olefinic products
